Activity calls are given as the source filed them. The calls are words filed in the database; no cut-off is given here.
How the values were obtained:
[1] = Antioxidant activity assessed as decrease in initial DPPH concentration after 30 min by MicroELISA reader analysis; assay type: functional
[2] = system: L02; experiment: Hepatoprotective activity in Homo sapiens (human) LO2 cells assessed as reversal of CCl4-induced decrease in GSH-Px activity at 50 mM treated prior to CCl4 addition measured after 24 hr (CCl4 Rvb = 49 +/-3.8%); assay type: functional; parameters: scale not given: the % may be the effect or the level left
[3] = system: L02; experiment: Hepatoprotective activity in Homo sapiens (human) LO2 cells assessed as reversal of CCl4-induced decrease in GSH-Px activity at […] treated prior to CCl4 addition measured after 24 hr (CCl4 Rvb = 49 +/-3.8%); assay type: functional; parameters: scale not given: the % may be the effect or the level left
[4] = system: L02; experiment: Hepatoprotective activity in Homo sapiens (human) LO2 cells assessed as reversal of CCl4-induced decrease in GSH-Px activity at 10 mM treated prior to CCl4 addition measured after 24 hr (CCl4 Rvb = 49 +/-3.8%); assay type: functional; parameters: scale not given: the % may be the effect or the level left
[5] = system: L02; experiment: Hepatoprotective activity in Homo sapiens (human) LO2 cells assessed as reversal of CCl4-induced decrease in GSH-Px activity at 1 mM treated prior to CCl4 addition measured after 24 hr (CCl4 Rvb = 49 +/-3.8%); assay type: functional; parameters: scale not given: the % may be the effect or the level left
[6] = system: L02; experiment: Hepatoprotective activity in Homo sapiens (human) LO2 cells assessed as reversal of CCl4-induced increase in malondialdehyde level at 50 mM treated prior to CCl4 addition measured after 24 hr (CCl4 Rvb = 170 +/-4.3%); assay type: functional
[7] = system: L02; experiment: Hepatoprotective activity in Homo sapiens (human) LO2 cells assessed as reversal of CCl4-induced increase in malondialdehyde level at […] treated prior to CCl4 addition measured after 24 hr (CCl4 Rvb = 170 +/-4.3%); assay type: functional
[8] = system: L02; experiment: Hepatoprotective activity in Homo sapiens (human) LO2 cells assessed as reversal of CCl4-induced increase in malondialdehyde level at 10 mM treated prior to CCl4 addition measured after 24 hr (CCl4 Rvb = 170 +/-4.3%); assay type: functional
[9] = system: L02; experiment: Hepatoprotective activity in Homo sapiens (human) LO2 cells assessed as reversal of CCl4-induced increase in malondialdehyde level at 1 mM treated prior to CCl4 addition measured after 24 hr (CCl4 Rvb = 170 +/-4.3%); assay type: functional
[10] = system: L02; experiment: Hepatoprotective activity in Homo sapiens (human) LO2 cells assessed as reversal of CCl4-induced decrease in superoxide dismutase activity at […] treated prior to CCl4 addition measured after 24 hr by xanthine/xanthine oxidase assay (CCl4 Rvb = 47 +/-4.4%); assay type: functional; parameters: scale not given: the % may be the effect or the level left
[11] = system: L02; experiment: Hepatoprotective activity in Homo sapiens (human) LO2 cells assessed as reversal of CCl4-induced decrease in superoxide dismutase activity at 50 mM treated prior to CCl4 addition measured after 24 hr by xanthine/xanthine oxidase assay (CCl4 Rvb = 47 +/-4.4%); assay type: functional; parameters: scale not given: the % may be the effect or the level left
[12] = system: L02; experiment: Hepatoprotective activity in Homo sapiens (human) LO2 cells assessed as reversal of CCl4-induced decrease in superoxide dismutase activity at 1 mM treated prior to CCl4 addition measured after 24 hr by xanthine/xanthine oxidase assay (CCl4 Rvb = 47 +/-4.4%); assay type: functional; parameters: scale not given: the % may be the effect or the level left
[13] = system: L02; experiment: Hepatoprotective activity in Homo sapiens (human) LO2 cells assessed as reversal of CCl4-induced decrease in superoxide dismutase activity at 10 mM treated prior to CCl4 addition measured after 24 hr by xanthine/xanthine oxidase assay (CCl4 Rvb = 47 +/-4.4%); assay type: functional; parameters: scale not given: the % may be the effect or the level left
[14] = system: L02; experiment: Hepatoprotective activity in Homo sapiens (human) LO2 cells assessed as protection against CCl4-induced cytotoxicity at […] treated prior to CCl4 addition measured after 24 hr by MTT assay; assay type: functional, cell-based
[15] = system: L02; experiment: Hepatoprotective activity in Homo sapiens (human) LO2 cells assessed as protection against CCl4-induced cytotoxicity at 50 to […] treated prior to CCl4 addition measured after 24 hr by MTT assay; assay type: functional, cell-based
[16] = system: L02; experiment: Hepatoprotective activity in Homo sapiens (human) LO2 cells assessed as protection against CCl4-induced cytotoxicity at 10 to […] treated prior to CCl4 addition measured after 24 hr by MTT assay; assay type: functional, cell-based

For `COc1cc(CCO[C@@H]2O[C@H](CO)[C@@H](O)[C@H](O)[C@H]2O)cc(OC)c1O`, the IC50 [1] was 61.6 µM.

`O=C1O[C@H]([C@@H](O)CO)C(O)=C1O` [ASCORBIC ACID] showed an IC50 [1] of 54.6 µM.

`OC[C@H]1O[C@@H](OCCc2ccc(O)c(Br)c2)[C@H](O)[C@@H](O)[C@H]1O` gave an IC50 [1] greater than 100 µM.

`OC[C@H]1O[C@@H](OCCc2cc(Br)c(O)c(Br)c2)[C@H](O)[C@@H](O)[C@H]1O` showed an IC50 [1] greater than 100 µM.

For `COc1cc(CCO[C@@H]2O[C@H](CO)[C@H](O)[C@H](O)[C@H]2O)ccc1O`, the IC50 [1] was 40.8 µM.

Molecule `OC[C@H]1O[C@@H](OCCc2ccc(O)cc2)[C@H](O)[C@@H](O)[C@@H]1O` [SALIDROSIDE] has an Activity [2] of 56%, an Activity [3] of 61% and an Activity [4] of 53%. It also gave an Activity [5] of 51%, an Activity [6] of 162% and an Activity [7] of 157%. The Activity [8] was 165%, the Activity [9] was 168% and the Activity [10] was 61%. The Activity [11] was 56%, the Activity [12] was 49% and the Activity [13] was 52%. For the same molecule, the Activity [14] was “Active”, the Activity [15] was “Active” and the Activity [16] was “Active”.

Work on `OC[C@H]1O[C@@H](OCCc2ccc(O)c(Br)c2)[C@H](O)[C@@H](O)[C@@H]1O` yielded an IC50 [1] greater than 100 µM.

With `COc1cc(CCO[C@@H]2O[C@H](CO)[C@H](O)[C@H](O)[C@H]2O)cc(OC)c1O` the IC50 [1] was 70.1 µM.

`CCOc1cc(CCO[C@@H]2O[C@H](CO)[C@H](O)[C@H](O)[C@H]2O)ccc1O` gave an IC50 [1] of 87.5 µM.

With `CCOc1cc(CCO[C@@H]2O[C@H](CO)[C@@H](O)[C@H](O)[C@H]2O)ccc1O` the IC50 [1] was 66.8 µM.

In the case of `OC[C@H]1O[C@@H](OCCc2cc(O)c(O)c(O)c2)[C@H](O)[C@@H](O)[C@H]1O`, the Activity [2] is reported as 78%, the Activity [3] is reported as 86% and the Activity [4] is reported as 64%. It also gave an Activity [5] of 55%, an Activity [6] of 119% and an Activity [7] of 110%. It also gave an Activity [8] of 141%, an Activity [9] of 164% and an Activity [10] of 89%. For the same molecule, the Activity [11] was 76%, the Activity [12] was 54% and the Activity [13] was 65%. For the same molecule, the Activity [14] was “Active”, the Activity [15] was “Active” and the Activity [16] was “Active”. For the same molecule, the IC50 [1] was 35.9 µM.

Work on `OC[C@H]1O[C@@H](OCCc2cc(Br)c(O)c(Br)c2)[C@H](O)[C@@H](O)[C@@H]1O` yielded an IC50 [1] greater than 100 µM.

With `OC[C@H]1O[C@@H](OCCc2cc(O)c(O)c(O)c2)[C@H](O)[C@@H](O)[C@@H]1O` the Activity [2] was 71%, the Activity [3] was 80% and the Activity [4] was 57%. For the same molecule, the Activity [5] was 54%, the Activity [6] was 128% and the Activity [7] was 117%. It also gave an Activity [8] of 151%, an Activity [9] of 167% and an Activity [10] of 83%. The Activity [11] was 70%, the Activity [12] was 50% and the Activity [13] was 55%. For the same molecule, the Activity [14] was “Active”, the Activity [15] was “Active” and the Activity [16] was “Active”. It also gave an IC50 [1] of 38.1 µM.

`COc1cc(CCO[C@@H]2O[C@H](CO)[C@@H](O)[C@H](O)[C@H]2O)ccc1O` showed an IC50 [1] of 59.8 µM.

From ChEMBL document CHEMBL3044980, “Free radical scavenging and hepatoprotective effects of salidroside analogs on CCl4-induced cytotoxicity in LO2 cells” (Med Chem Res, 2013)
